Experimental data from patent publication US20140357594A1, “NEW COMPOUNDS” (GlaxoSmithkline Intellectual Property (No.2) Limited, priority 2011, published 2014).

Tests used:
[1] = biological target: T1, Catalytic domains of human DNMT 3a/3L enzyme (Homo sapiens, UniProt Q9Y6K1); assay: DNMT inhibition assay (3H-SAM filter plate scintillation), DNMT 3a/3L; format: biochemical; conditions: Poly(dIdC) DNA 0.002 mg/mL, H3 SAM 500 nM, 30 min pre-incubation without SAM, 37° C. 1 h; read-out: DNMT 3a/3I IC50
T1 construct: Catalytic domains of human DNMT 3a/3L enzyme were produced by Accelagen; purchased Accelagen
T1 sequence (Q9Y6K1 634-912 limits assumed): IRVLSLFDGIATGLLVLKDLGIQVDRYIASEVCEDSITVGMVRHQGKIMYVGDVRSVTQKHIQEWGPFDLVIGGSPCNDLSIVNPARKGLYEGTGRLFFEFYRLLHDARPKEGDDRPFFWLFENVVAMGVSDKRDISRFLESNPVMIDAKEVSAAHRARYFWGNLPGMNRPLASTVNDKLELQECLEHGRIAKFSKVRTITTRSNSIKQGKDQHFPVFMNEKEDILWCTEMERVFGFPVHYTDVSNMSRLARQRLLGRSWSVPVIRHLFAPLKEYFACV
T1 sequence (Q9UJW3 178-386 partner limits assumed): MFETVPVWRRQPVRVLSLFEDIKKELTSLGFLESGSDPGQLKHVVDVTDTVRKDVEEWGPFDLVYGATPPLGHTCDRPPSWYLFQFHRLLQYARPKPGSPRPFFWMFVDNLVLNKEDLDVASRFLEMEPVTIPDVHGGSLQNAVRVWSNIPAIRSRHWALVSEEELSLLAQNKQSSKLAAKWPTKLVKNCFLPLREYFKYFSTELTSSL
Method: (§1) Catalytic domains of human DNMT 3a/3L enzyme were produced by Accelagen. Human full-length DNMT1 enzyme purchased from BPS Biosciences. Poly(dldC) DNA (Sigma) was used at 0.002 mg/mL. H3 SAM (Perkin Elmer) was used at 500 nM. DNA, DNMT enzyme, and inhibitors were mixed with assay buffer (20 mM Tris pH8, 5% glycerol, 1 mM EDTA, 100 μg/mL BSA, 1 mM DTT, 50 mM NaCl) and pre-incubated without SAM for 30 min. H3 SAM was then added to initiate the methylation reaction which continues at 37° C. for 1 h. Reaction mixture was then transferred to a filter plate (Millipore Multiscreen HTS DE), then washed with 50 mM H2PO4 and 95% Ethanol. Scintillation counts were measured on the Perkin Elmer Microbeta scintillation counter.

[2] = biological target: T2, Human full-length DNMT1 enzyme (Homo sapiens, UniProt P26358); assay: DNMT inhibition assay (3H-SAM filter plate scintillation), DNMT1; format: biochemical; conditions: Poly(dIdC) DNA 0.002 mg/mL, H3 SAM 500 nM, 30 min pre-incubation without SAM, 37° C. 1 h
T2 construct: Human full-length DNMT1 enzyme purchased from BPS Biosciences; purchased BPS Biosciences
T2 sequence (P26358 whole entry): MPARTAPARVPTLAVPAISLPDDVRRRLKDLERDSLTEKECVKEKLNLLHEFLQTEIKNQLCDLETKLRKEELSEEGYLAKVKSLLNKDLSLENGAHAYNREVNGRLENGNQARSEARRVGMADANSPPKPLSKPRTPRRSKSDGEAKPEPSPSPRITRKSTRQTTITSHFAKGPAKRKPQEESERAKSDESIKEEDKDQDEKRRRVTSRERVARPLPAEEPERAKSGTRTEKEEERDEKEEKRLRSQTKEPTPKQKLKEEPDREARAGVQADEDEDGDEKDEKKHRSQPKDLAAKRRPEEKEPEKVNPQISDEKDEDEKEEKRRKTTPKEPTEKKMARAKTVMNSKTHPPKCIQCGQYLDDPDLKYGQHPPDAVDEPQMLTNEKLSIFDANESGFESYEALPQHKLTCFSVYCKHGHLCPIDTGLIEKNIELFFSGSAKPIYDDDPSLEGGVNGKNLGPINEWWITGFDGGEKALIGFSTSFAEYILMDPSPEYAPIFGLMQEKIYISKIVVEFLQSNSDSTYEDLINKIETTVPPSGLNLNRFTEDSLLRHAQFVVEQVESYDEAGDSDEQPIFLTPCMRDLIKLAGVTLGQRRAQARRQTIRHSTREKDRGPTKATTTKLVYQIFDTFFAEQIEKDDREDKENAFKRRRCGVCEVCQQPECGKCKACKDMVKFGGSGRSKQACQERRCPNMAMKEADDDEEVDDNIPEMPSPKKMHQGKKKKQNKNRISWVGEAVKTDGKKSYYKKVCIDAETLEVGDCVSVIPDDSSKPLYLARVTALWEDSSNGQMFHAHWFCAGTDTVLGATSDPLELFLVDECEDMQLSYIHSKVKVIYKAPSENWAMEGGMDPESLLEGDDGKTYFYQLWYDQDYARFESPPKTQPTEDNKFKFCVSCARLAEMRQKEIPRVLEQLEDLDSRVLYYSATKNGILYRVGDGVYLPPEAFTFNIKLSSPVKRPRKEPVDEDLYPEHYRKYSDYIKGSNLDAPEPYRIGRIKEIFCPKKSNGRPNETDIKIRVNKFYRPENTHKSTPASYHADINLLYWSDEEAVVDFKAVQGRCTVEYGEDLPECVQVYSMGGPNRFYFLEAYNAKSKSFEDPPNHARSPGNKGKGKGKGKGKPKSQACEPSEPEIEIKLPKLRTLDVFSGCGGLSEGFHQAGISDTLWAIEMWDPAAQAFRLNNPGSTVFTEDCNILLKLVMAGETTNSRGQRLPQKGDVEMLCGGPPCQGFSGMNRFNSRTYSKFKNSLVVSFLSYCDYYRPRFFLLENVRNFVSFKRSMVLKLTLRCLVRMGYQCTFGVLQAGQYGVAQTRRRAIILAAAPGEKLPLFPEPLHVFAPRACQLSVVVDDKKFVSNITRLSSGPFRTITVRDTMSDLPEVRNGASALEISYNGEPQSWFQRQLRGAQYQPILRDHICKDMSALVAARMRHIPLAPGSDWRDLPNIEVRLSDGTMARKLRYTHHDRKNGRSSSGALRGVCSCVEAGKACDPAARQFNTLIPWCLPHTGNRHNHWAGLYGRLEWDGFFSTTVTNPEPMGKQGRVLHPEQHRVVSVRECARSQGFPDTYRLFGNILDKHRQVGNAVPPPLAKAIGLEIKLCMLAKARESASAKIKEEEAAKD
Method: as §1

Row | SMILES | IC50 [1] [µM] | IC50 [2] [µM]
1 | Nc1ncnc2c1ncn2[C@H]1O[C@@H](CSCCNc2ccnc(Cl)n2)[C@H](O)[C@@H]1O [Example 2, (2S,3S,4R,5R)-2-(6-Amino-9H-purin-9-yl)-5-(((2-((2-chloropyrimidin-4-yl)amino)ethyl)thio)methyl)tetrahydrofuran-3,4-diol] | 95 | –
2 | Nc1ncnc2c1ncn2[C@H]1O[C@@H](CSCCNc2ccncn2)[C@H](O)[C@@H]1O [Example 3, (2S,3S,4R,5R)-2-(6-Amino-9H-purin-9-yl)-5-(((2-(pyrimidin-4-ylamino)ethyl)thio)methyl)tetrahydrofuran-3,4-diol] | 26 | –
3 | Nc1ncnc2c1ncn2[C@H]1O[C@@H](CSCCNc2nccc(Cl)n2)[C@H](O)[C@@H]1O [Example 1, (2S,3S,4R,5R)-2-(6-Amino-9H-purin-9-yl)-5-(((2-((4-chloropyrimidin-2-yl)amino)ethyl)thio)methyl)tetrahydrofuran-3,4-diol] | 3 | > 300
4 | C=CC(=O)NCCSC[C@@H]1O[C@H](n2cnc3c(N)ncnc32)[C@@H](O)[C@H]1O [Example 5, N-(2-((((2R,3R,4S,5S)-5-(6-Amino-9H-purin-9-yl)-3,4-di hydroxytetrahydrofuran-2-yl)methyl)thio)ethyl)acrylamide] | 24 | 49
5 | Nc1ncnc2c1ncn2[C@H]1O[C@@H](CSCCNc2cc(Cl)ncn2)[C@H](O)[C@@H]1O [Example 4] | 60 | 48
